Measured values reported in publication PMC6797691, “Towards the understanding of the enzymatic cleavage of polyisoprene by the dihaem-dioxygenase RoxA” (AMB Express, 2019).

Biological target: RoxA (RoxA-Wt, rubber oxygenase A) (Xanthomonas sp. 35Y, UniProt Q7X0P3)
Conditions: RoxA as isolated (oxygenated haem), pyridine 2 mM, pH 7; N-terminal haem iron, displaces bound dioxygen

RoxA (RoxA-Wt, rubber oxygenase A), sequence (Q7X0P3 entry or part of it): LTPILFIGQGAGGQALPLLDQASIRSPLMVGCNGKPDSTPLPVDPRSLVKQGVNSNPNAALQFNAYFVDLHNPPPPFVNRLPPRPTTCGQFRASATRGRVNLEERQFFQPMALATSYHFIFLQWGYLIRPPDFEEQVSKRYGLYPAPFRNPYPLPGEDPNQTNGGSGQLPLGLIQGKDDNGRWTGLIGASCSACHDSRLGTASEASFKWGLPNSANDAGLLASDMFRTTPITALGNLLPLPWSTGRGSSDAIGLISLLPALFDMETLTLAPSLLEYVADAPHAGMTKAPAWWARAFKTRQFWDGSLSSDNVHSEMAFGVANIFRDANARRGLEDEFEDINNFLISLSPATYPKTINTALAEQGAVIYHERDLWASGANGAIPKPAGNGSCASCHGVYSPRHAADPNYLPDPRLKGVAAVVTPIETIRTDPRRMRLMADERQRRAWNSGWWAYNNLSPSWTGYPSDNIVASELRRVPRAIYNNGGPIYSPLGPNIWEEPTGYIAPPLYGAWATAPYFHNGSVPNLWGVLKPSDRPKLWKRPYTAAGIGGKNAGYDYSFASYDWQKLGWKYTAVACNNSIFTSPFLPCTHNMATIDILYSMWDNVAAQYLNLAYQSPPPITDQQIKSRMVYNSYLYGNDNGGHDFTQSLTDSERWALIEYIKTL

SMILES: c1ccncc1 [pyridine]
- UV-vis spectroscopy (549 nm band), EPR: displacement of haem-bound dioxygen by N-heterocycles that then serve as artificial ligands to a ferrous haem
